Key:
[1] = Release of parent in human plasma; format: in vitro ADME; details: prodrug conversion to bioactive parent

| Compound | Release of Parent in Human Plasma [1] | solubility (Solubility) | solubility (physchem) |
| --- | --- | --- | --- |
| CCN(CC)Cc1ccc(C(=O)OCO[C@@](Cn2cncn2)(c2ccc(F)cc2F)[C@@H](C)c2nc(-c3ccc(C#N)cc3)cs2)cc1 [Example 1, (2R,3R)-3-[4-(4-cyanophenyl)thiazol-2-yl]-2-(2,4-difluorophenyl)-1-(1H-1,2,4-triazol-1-yl)-2-[[p-(N,N-diethylaminomethyl)benzoyloxy]methoxy]butane] | Yes | > 1000 µg/mL | – |
| C[C@@H](c1nc(-c2ccc(C#N)cc2)cs1)C(Cn1cncn1)(OP(=O)([O-])[O-])c1ccc(F)cc1F.[Na+].[Na+] (some centres unmarked) [Example 7 of WO 97/28169] | No | > 1000 µg/mL | – |
| C[C@@H](c1nc(-c2ccc(C#N)cc2)cs1)[C@](O)(Cn1cncn1)c1ccc(F)cc1F [Parent, (2R,3R)-3-[4-(4-cyanophenyl)thiazol-2-yl]-2-(2,4-difluorophenyl)-1-(1H-1,2,4-triazol-1-yl)-butan-2-ol] | – | – | < 6 µg/mL |
